How the values were obtained:
circulating FGF21 levels = test: oral fructose load versus oral glucose load, circulating FGF21 in human subjects; format: in vivo; details: two hours after ingestion of 75 grams of fructose, lean healthy subjects
Description: FIGS. 2A-2B show plasma FGF21 levels: FIG. 2A) following ingestion of 75 grams glucose (n=8) and FIG. 2B) Plasma FGF21 levels following ingestion of 75 grams fructose in human subjects (n=10).
To test whether fructose ingestion can acutely regulate circulating FGF21 in human subjects, we compared the effects of administering a 75 gram oral glucose load versus a 75 gram oral fructose load on circulating FGF21 levels in lean healthy subjects. Ingestion of glucose has no effect on FGF21 levels (FIG. 2A and ^14). In contrast, circulating FGF21 levels increase ˜4-fold two hours after ingestion of 75 grams of fructose (FIG. 2B). Thus oral fructose ingestion, but not glucose ingestion acutely and robustly increases circulating FGF21 levels. To our knowledge FGF21 is the only known measurable circulating biomarker that specifically assesses an individual's acute metabolic response to fructose ingestion.

[1] = fructose: at first pass; cited from earlier work
[2] = test system: hepatic ChREBP-β, ChREBP transcriptional targets and circulating FGF21; test: mice fed chow, 60% dextrose or 60% fructose diets for 7 weeks: hepatic mRNA expression and circulating FGF21; format: in vivo; details: 7 weeks of 60% diet
Description: FIGS. 1A-1C are bar graphs of hepatic mRNA expression (FIG. 1A, 1B) and circulating (FIG. 1C) FGF21 levels in 15-week-old mice fed chow, 60% dextrose, or 60% fructose diets for 7 weeks, sacrificed in the ad lib fed state. * P<0.05 compared to all other groups. n=5-7 per group.
The FGF21 gene contains a ChREBP binding site in its promoter and exposure of primary hepatocytes to high glucose concentrations increases FGF21 expression in a ChREBP dependent manner^37,38. To determine whether ChREBP might regulate circulating FGF21 levels we fed mice chow, 60% dextrose, or 60% fructose diets. […] Thus, we hypothesized that the increase in circulating FGF21 levels associated with features of the metabolic syndrome might be due to activation of hepatic ChREBP and that fructose consumption might be important for this.

SMILES: O=C(CO)[C@@H](O)[C@H](O)[C@H](O)CO [fructose]
- increase of circulating FGF21 levels (circulating FGF21 levels): ~4 fold
- share of an oral load taken up / extracted by the liver [1]: ~100%
- circulating FGF21 levels [2]: highest levels
- effect of fructose on hepatic ChREBP-β expression relative to that of dextrose [2]: ~3 fold
- expression of ChREBP transcriptional targets (Pklr, Fasn, FGF21) in liver [2]: greater increase
- hepatic expression of ChREBP-β compared to chow ([2]; ad lib fed state): markedly increases
